Results from article PMC9585585, “Discovery of Small-Molecule Allosteric Inhibitors of PfATC as Antimalarials” (Journal of the American Chemical Society, 2022).
Read-outs that look alike come from different tables or passages of the source.

Legend:
PfATC = PfATC (Plasmodium falciparum, UniProt A0A5K1K910); assay: biochemical
Protocol: Following washing with Lysis buffer
Excess imidazole was removed and the His-tag was cleaved
400Then, the sample was loaded onto a 5 ml HiTrap SP HP column (GE Healthcare, USA) and
410PfATC activity assay. Enzymatic reactions were performed in a total volume of 150 µL in 50 mM
Small-molecule dose-response curves were
The reactions were initiated by adding CP and quenched after 10 min with
After plates were sealed with transparent sealing
(§1) 420tape to prevent evaporation and incubated overnight in the dark place at room temperature. After
Analyses were performed using
The enzymatic assay was performed as described herein above for
Briefly, the reaction was carried out at room
The reaction was initiated by
Then the plate was covered by sealing
(§2) 430tape and kept in dark place at room temperature and then heated to 95 °C for 15min in dark and kept

HsATC = biological target: T1, HsATC (Homo sapiens, UniProt P27708); assay: HsATC activity assay; format: biochemical; details: in vitro activity assay, 10 mM L-aspartate, 5 mM carbamoyl phosphate; read-out: HsATC IC50
T1 construct: ATCase domain of CAD; made in house; host or cells: E. coli BL21 star
T1 sequence (P27708 1918-2225 limits assumed): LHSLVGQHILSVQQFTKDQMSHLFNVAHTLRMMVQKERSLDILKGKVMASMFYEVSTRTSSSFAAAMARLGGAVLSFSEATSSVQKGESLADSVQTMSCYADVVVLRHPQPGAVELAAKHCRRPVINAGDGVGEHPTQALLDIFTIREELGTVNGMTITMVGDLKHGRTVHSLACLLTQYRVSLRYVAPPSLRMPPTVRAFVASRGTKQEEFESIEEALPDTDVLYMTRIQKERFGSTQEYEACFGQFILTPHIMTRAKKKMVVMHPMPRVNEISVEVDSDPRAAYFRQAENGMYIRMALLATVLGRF
Protocol: 417100μL of stop mix (two volumes of Antipyrine (26.5 mM 2,3-Dimethyl-1-phenyl-3-pyrazolin-5-
418one in 50% (v/v) sulfuric acid) and one volume of 2,3-Butanedione monoxime (80 mM 2,3-
419Butanedione monoxime in 5% (v/v) acetic acid). After plates were sealed with transparent sealing
as §1
421incubation, the plates were heated at 95 °C for 15 min in dark place, and kept for 30 min before
422measuring at 466 nm suing a Synergy H1 Hybrid Reader (BioTek). Analyses were performed using
423Microsoft Excel and Graph Pad Prism.
424HsATC activity assay. The enzymatic assay was performed as described herein above for
425enzymatic assay of PfATC with minor modifications. Briefly, the reaction was carried out at room
426temperature in a total volume of 150 μl of 10 mM L-aspartate and 5 mM carbamoyl phosphate
427saturated substrate solution in 50 mM Tris-Acetate buffer pH 8.3. hsATC was pre-incubated with
428inhibitor and L-Asp for 10 min at room temperature on a shaker. The reaction was initiated by
429adding CP and stopped after 5 min with […] color mix. Then the plate was covered by sealing
as §2
431the plate in the dark for another 30 min before measuring the absorbance at 466 nm suing a Synergy
432H1 Hybrid Reader (BioTek). […]

[1] = in vitro activity assay, PfATC 50 nM, 2 mM CP, 1 mM aspartate, read-out: PfATC IC50
[2] = in vitro enzyme assay, PfATC 50 nM, n = 3, read-out: IC50 against PfATC

Sequence of PfATC (A0A5K1K910 entry or part of it): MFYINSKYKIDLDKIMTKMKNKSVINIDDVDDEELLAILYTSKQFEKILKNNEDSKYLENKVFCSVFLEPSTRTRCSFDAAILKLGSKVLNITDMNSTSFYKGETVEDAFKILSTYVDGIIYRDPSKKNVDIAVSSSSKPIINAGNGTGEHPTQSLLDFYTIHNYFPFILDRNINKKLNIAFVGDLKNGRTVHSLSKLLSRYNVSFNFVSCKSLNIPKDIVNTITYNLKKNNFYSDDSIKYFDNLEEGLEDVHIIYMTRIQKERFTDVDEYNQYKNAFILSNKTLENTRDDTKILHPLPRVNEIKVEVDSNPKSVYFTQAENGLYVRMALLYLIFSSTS

Row | Structure (SMILES) | IC50 (PfATC; [1]) [nM] | IC50 (HsATC) [nM] | IC50 (PfATC; [2]) [nM] | IC50 (PfATC) [nM]
1 | Nc1sc(Cc2ccccc2)cc1C(=O)NCCc1ccc(O)cc1 [BDA-58] | 4830 | 1230 |  | 
2 | CC(C)CCNc1sc(-c2ccccc2)cc1C(=O)NCCc1ccccc1 [BDA-12] | 159 | 655 |  | 
3 | CCCCNC(=O)c1cc(-c2ccccc2)sc1N [compound 4] |  |  | 3320 | 
4 | CCCNC(=O)c1cc(-c2ccccc2)sc1N [compound 5] |  |  | 5690 | 
5 | CC(C)(C)OC(=O)Nc1sc(-c2ccccc2)cc1C(=O)NCC(=O)c1ccccc1 [BDA-27] | 1230 | 369 |  | 
6 | CC(C)(C)OC(=O)Nc1sc(-c2ccccc2)cc1C(=O)NCC(c1ccccc1)c1ccccc1 [BDA-39] | 5640 | 15400 |  | 
7 | CC(C)(C)OC(=O)Nc1sc(-c2ccccc2)cc1C(=O)Nc1ccccc1 [BDA-31] | 1050 | 332 |  | 
8 | CC(C)(C)OC(=O)Nc1sc(-c2ccccc2)cc1C(=O)Nc1ccc(N2CCOCC2)c(F)c1 [BDA-37] | 1080 | 349 |  | 
9 | CC(C)(C)OC(=O)Nc1sc(-c2ccccc2)cc1C(=O)NCCN1CCOCC1 [BDA-57] | 800 | 381 |  | 
10 | CC(C)(C)OC(=O)Nc1sc(-c2ccccc2)cc1C(=O)NCCCc1ccccc1 [BDA-26] | 576 | 555 |  | 
11 | CC(C)(C)OC(=O)Nc1sc2c(c1C(=O)NCCc1ccc(O)cc1)CCC(c1ccccc1)C2 (centres unmarked) [BDA-42] | 12200 | 2420 |  | 
12 | CC(C)(C)OC(=O)Nc1sc(-c2ccccc2)c(-c2ccccc2)c1C(=O)NCCc1ccc(O)cc1 [BDA-60] | 2010 | 1050 |  | 
13 | COCCNC(=O)c1cc(-c2ccccc2)sc1N [compound 1] |  |  |  | 1590
14 | COC(=O)c1c(N)sc2c1CCN(Cc1ccccc1)C2 [BDA-68] |  | 58300 |  | 
15 | Nc1sc(-c2ccccc2)cc1C(=O)NCCc1ccc(S(N)(=O)=O)cc1 [BDA-07] | 996 | 116 |  | 
16 | CC(C)(C)OC(=O)Nc1sc(-c2ccccc2)cc1C(=O)N1CCN(c2ccc(O)cc2)CC1 [BDA-63] | 1090 | 250 |  | 
17 | COC(=O)c1cc(-c2ccc3c(c2)OCCO3)sc1NC(=O)OC(C)(C)C [BDA-69] | 1050 | 1030 |  | 
18 | CC(C)(C)OC(=O)Nc1sc2c(c1C(=O)NCCc1ccc(O)cc1)CCN(Cc1ccccc1)C2 [BDA-36] |  | 3840 |  | 
19 | COC(=O)c1c(NC(=O)OC(C)(C)C)sc2c1CCC(c1ccccc1)C2 (centres unmarked) [BDA-65] | 6420 | 5170 |  | 
20 | COC(=O)c1cc(-c2ccccc2)sc1N [BDA-01] | 1270 | 1540 |  | 
21 | N#CC1(C(=O)Nc2sc(-c3ccccc3)cc2C(=O)NCCc2ccc(O)cc2)CC1 [BDA-70] | 876 | 556 |  | 

Row | Structure (SMILES) | IC50 (PfATC; [1]) [nM] | IC50 (HsATC) [nM] | IC50 (PfATC; [2]) [nM] | IC50 (PfATC) [nM]
22 | Nc1sc(-c2ccccc2)cc1C(=O)NCCc1ccc(F)cc1 [BDA-46] | 1640 | 740 |  | 
23 | O=C(NCCc1ccccc1)c1cc(-c2ccccc2)sc1NCc1ncc[nH]1 [BDA-13] | 639 | 268 |  | 
24 | COC(=O)c1c(N)sc2c1CCC(c1ccccc1)C2 (centres unmarked) [BDA-66] | 1290 | 764 |  | 
25 | COC(=O)c1c(NC(=O)OC(C)(C)C)sc2c1CCCC2 [BDA-67] | 1360 | 1010 |  | 
26 | C#CCNC(=O)c1cc(-c2ccccc2)sc1N [compound 2] |  |  | 4910 | 
27 | O=C(Cc1c[nH]c2ccccc12)Nc1sc(-c2ccccc2)cc1C(=O)NCCc1ccccc1 [BDA-08] | 14700 |  |  | 
28 | CC(C)(C)OC(=O)Nc1sc(-c2ccccc2)cc1C(=O)N1CCN(c2ccc(F)cc2)CC1 [BDA-10] | 5080 | 298 |  | 
29 | COC(=O)c1cc(-c2ccccc2)sc1NC(=O)OC(C)(C)C [BDA-02] | 1470 | 1500 |  | 
30 | COC(=O)c1c(NC(=O)OC(C)(C)C)sc2c1CCN(Cc1ccccc1)C2 [BDA-64] | 86900 | 704000 |  | 
31 | CC(C)c1cc(C(=O)NCCc2ccc(O)cc2)c(N)s1 [BDA-61] | 1980 | 862 |  | 
32 | CC(C)(C)OC(=O)Nc1sc(-c2ccccc2)cc1C(=O)NCCc1ccc(S(N)(=O)=O)cc1 [BDA-06] | 1870 | 287 |  | 
33 | CC(C)(C)OC(=O)Nc1sc2c(c1C(=O)NCCc1ccc(O)cc1)CCCC2 [BDA-43] | 18400 | 2090 |  | 
34 | C=CCNC(=O)c1cc(-c2ccccc2)sc1N [compound 3] |  |  | 4610 | 
35 | CC(C)(C)OC(=O)Nc1sc(-c2ccccc2)cc1C(=O)NCCC1=CCCCC1 [BDA-20] | 6310 | 2000 |  | 
36 | Cc1c(-c2ccccc2)sc(NC(=O)OC(C)(C)C)c1C(=O)NCCc1ccc(O)cc1 [BDA-49] | 5940 | 729 |  | 
37 | CC(C)(C)OC(=O)NCC1CCN(C(=O)c2cc(-c3ccccc3)sc2NC(=O)OC(C)(C)C)CC1 [BDA-09] | 241 | 196 |  | 
38 | COc1ccc(CCNC(=O)c2cc(-c3ccccc3)sc2NC(=O)OC(C)(C)C)cc1 [BDA-29] | 1620 | 585 |  | 
39 | Nc1sc(-c2ccccc2)cc1C(=O)NCCc1ccc(O)cc1 [BDA-50] | 1140 | 360 |  | 
40 | Nc1sc(-c2ccccc2)cc1C(=O)NCCc1ccccc1 [BDA-05] | 1270 | 765 |  | 
41 | CC(C)(C)OC(=O)Nc1sc(-c2ccccc2)cc1C(=O)NC1CCN(Cc2ccccc2)CC1 [BDA-38] | 805 | 185 |  | 

Second part, the compound after the results:

Row | IC50 (PfATC; [1]) [nM] | IC50 (HsATC) [nM] | IC50 (PfATC; [2]) [nM] | IC50 (PfATC) [nM] | Structure (SMILES)
42 | 181 | 403 |  |  | CC(C)(C)OC(=O)Nc1sc(-c2ccccc2)cc1C(=O)NCCc1ccc(O)c(O)c1 [BDA-25]
43 | 845 | 158 |  |  | CC(C)(C)OC(=O)Nc1sc(-c2ccc(F)cc2)cc1C(=O)NCCc1ccc(O)cc1 [BDA-54]
44 | 558 | 119 |  |  | Cc1ccc(-c2cc(C(=O)NCCc3ccc(O)cc3)c(NC(=O)OC(C)(C)C)s2)cc1 [BDA-52]
45 | 1150 | 308 |  |  | CC(C)(C)OC(=O)NCC(=O)Nc1sc(-c2ccccc2)cc1C(=O)NCCc1ccc(O)cc1 [BDA-17]
46 | 1240 | 226 |  |  | CC(C)(C)OC(=O)Nc1sc(-c2cccc(N)c2)cc1C(=O)NCCc1ccc(O)cc1 [BDA-51]
47 | 1660 | 125 |  |  | CC(C)(C)OC(=O)Nc1sc(-c2cccc(C=O)c2)cc1C(=O)NCCc1ccc(O)cc1 [BDA-48]
48 | 2620 | 397 |  |  | CC(C)(C)OC(=O)Nc1sc(-c2ccccc2)cc1C(=O)NCc1ccc(O)cc1 [BDA-30]
49 | 673 | 28.9 |  |  | CC(C)(C)OC(=O)Nc1sc(-c2ccc3c(c2)OCO3)cc1C(=O)NCCc1ccc(O)cc1 [BDA-41]
50 | 2760 | 641 |  |  | CC(C)(C)OC(=O)Nc1sc(Br)cc1C(=O)NCCc1ccc(O)cc1 [BDA-32]
51 | 2220 | 556 |  |  | CC(C)(C)OC(=O)Nc1sc(-c2ccc(Cl)c(Cl)c2)cc1C(=O)NCCc1ccc(O)cc1 [BDA-56]
52 |  | 11400 |  |  | CC(C)(C)OC(=O)Nc1sc(-c2cncc(Cl)c2)cc1C(=O)NCCc1ccc(O)cc1 [BDA-40]
53 | 1630 | 391 |  |  | CC(C)(C)OC(=O)Nc1sc(-c2ccccc2)cc1C(=O)NCCc1ccc(F)cc1 [BDA-28]
54 | 1530 | 238 |  |  | CC(C)(C)OC(=O)Nc1sc(-c2cccc(N3CCOCC3)c2)cc1C(=O)NCCc1ccc(O)cc1 [BDA-47]
55 | 516 | 100 |  |  | CC(C)(C)OC(=O)Nc1sc(-c2ccc3c(c2)OCCO3)cc1C(=O)NCCc1ccc(O)cc1 [BDA-33]
56 | 3770 | 124 |  |  | CC(C)(C)OC(=O)Nc1sc(-c2ccc(C=O)cc2)cc1C(=O)NCCc1ccc(O)cc1 [BDA-45]
57 | 409 | 756 |  |  | Cc1ccc(CCNC(=O)c2cc(-c3ccccc3)sc2NC(=O)OC(C)(C)C)cc1 [BDA-23]
58 | 3110 | 2590 |  |  | CC(C)(C)OC(=O)Nc1sc(Cc2ccccc2)cc1C(=O)NCCc1ccc(O)cc1 [BDA-59]
59 | 2080 | 234 |  |  | CC(C)(C)OC(=O)Nc1sc(-c2cnc(N)nc2)cc1C(=O)NCCc1ccc(O)cc1 [BDA-35]
60 | 2720 | 383 |  |  | CC(C)(C)OC(=O)Nc1sc(-c2cccc(C#N)c2)cc1C(=O)NCCc1ccc(O)cc1 [BDA-53]
61 | 2200 | 1120 |  |  | CC(C)c1cc(C(=O)NCCc2ccc(O)cc2)c(NC(=O)OC(C)(C)C)s1 [BDA-62]
